Measured values published in patent US20240315994A1, “SMALL MOLECULE MODULATORS OF FERROPTOSIS” (ARPEGGIO BIOSCIENCES, INC., priority 2021, published 2024).

Tests used:
[1] = test system: HMOX1 expression in HT-1080 fibrosarcoma cells; experiment: HMOX1 induction by RT-qPCR in HT-1080 cells; format: cell-based
Description: We tested several of our ferroptosis-inducing compounds for their ability to rapidly induce HMOX1 by RT-qPCR. Briefly, HT-1080 fibrosarcoma cells were treated with either 10 µM or 5 µM of compound RSL3, 8216, 1962, 1816, or 3362 for four hours. RNA was isolated and reverse transcribed and HMOX1 expression quantified by qPCR. Each sample was normalized to an ACTB housekeeping gene control and fold change was calculated relative to a DMSO control.
We tested several of the ferroptosis-inducing compounds for their ability to rapidly induce expression of HMOX1. Briefly, HT-1080 fibrosarcoma cells were plated in 6-well dishes 24 hours prior to treatment with 5 μM of 8147, 6047, 3793, Rsl3, 6666 or 8216 with and without the addition of ferrostatin-1 to the media. Cells were harvested from the plate after 4 hours of compound treatment by adding Trizol reagent directly to the plate to lyse the cells and preserve the RNA. RNA was isolated using the Direct-zol 96-well RNA kit (Zymo cat #R2054). Subsequently purity and quantity of RNA in the samples were measured using a Nanodrop (Thermo Fisher cat #ND-ONE-W). RNA samples were normalized to 2 μg and reverse transcribed to cDNA using the Multiscribe High-Capacity Reverse Transcription kit (Thermo Fisher cat #4368814) following manufacturer's instructions. Quantitative real time PCR was carried out in triplicate using SYBR Select Master Mix (Thermo Fisher cat #4472903) following manufacturer's instructions with primers designed against HMOX1 and ActB from IDT. HMOX1 expression levels were normalized to ActB for each sample then fold change was determined against the vehicle control, DMSO.

[2] = test system: HT-1080 fibrosarcoma cells; experiment: HT-1080 single-concentration cell viability screen (Cell Titer Glo); format: cell-based; details: 10 μM compound, 48 hours, duplicate, fraction of control
Source text: To identify potential covalent inhibitors of GPX4, we screened a panel of 294 diverse small molecules from the Enamine covalent inhibitor library (Catalog No. CSL-10480-0-Z-10, Enamine, Monmouth, NJ). Each compound contains either a chloroacetamide or acrylamide moiety theoretically capable of forming a covalent bond with a selenocysteine. The small molecule compounds were selected for a diversity of backbone structures. The screening protocol used the cell viability assay Cell Titer Glo® (available from Promega, Madison, WI). Cell Titer Glo® is a luminescent cell viability that determines the number of viable cells in culture by quantifying ATP, which indicates the presence of metabolically active cells. Briefly, HT-1080 fibrosarcoma cells were plated 24 hours prior to treatment with 10 µM of each compound in the screening panel. Cell Titer Glo® was used to read out cell viability after 48 hours of compound exposure. Data was collected in duplicate.
To determine whether similar molecules could offer other starting points for a medicinal chemistry campaign, we screened 95 additional compounds that contain a similar base structure to that of 8216. Briefly, HT-1080 fibrosarcoma cells were treated with 10 µM of a compound for 48 hours and cell viability was measured by Cell Titer Glo®. Data was collected in duplicate. […]

[3] = test system: HMOX1 gene transcription in IMR90 lung fibroblast cells; experiment: PRO-seq transcriptional response (HMOX1) in IMR90 cells; format: cell-based; details: one hour, RSL3 1 μM, ML162 1 μM, erastin 10 μM
Source text: Expression of heme oxygenase 1 (HMOX1) mRNA may be used as a molecular response biomarker for induction of ferroptosis by direct inhibition of GPX4. To distinguish the transcriptional responses elicited by direct versus indirect inhibitors of GPX4, we profiled two direct GPX4 inhibitors, RSL3 and ML162, as well as one system Xc inhibitor, erastin, by Precision Run On followed by sequencing (PRO-seq) in IMR90 lung fibroblast cells. Briefly, IMR90 lung fibroblasts cells (a ferroptosis sensitive cell line) were treated with GPX inhibitors (RSL3 1 μM, ML162 1 μM) or system Xc inhibitor (erastin 10 µM) for one hour and samples were subjected to PRO-seq.

recombinant GPX4 protein = target: T1, recombinant GPX4 protein (Homo sapiens, UniProt P36969); experiment: GPX4 inhibitor screening assay (Cayman Chemical cat #701880); format: biochemical; details: 25 μM, one hour incubation; RSL3 without the 14-3-3 adapter protein
T1 construct: purchased Cayman Chemical SO960203
T1 sequence (P36969 1-197): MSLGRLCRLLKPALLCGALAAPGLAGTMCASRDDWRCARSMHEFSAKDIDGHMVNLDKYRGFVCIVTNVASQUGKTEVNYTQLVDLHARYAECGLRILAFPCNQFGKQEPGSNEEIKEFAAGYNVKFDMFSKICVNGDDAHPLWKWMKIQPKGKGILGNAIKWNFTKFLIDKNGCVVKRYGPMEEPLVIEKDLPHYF
Description: To determine whether the five ferroptosis-inducing compounds (1816, 8216, 3362, 1962, and 0973) inhibit GPX4 enzymatic activity in vitro, we used a commercially available GPX4 inhibitor screening kit (Cayman Chemical cat #701880). This assay measures a compound's ability to prevent cumene hydroperoxide reduction by recombinant GPX4 protein. Briefly, the five ferroptosis-inducing compounds (25 μM) were incubated with recombinant GPX4 protein for one hour before being run in the Cayman Chemicals GPX4 inhibitor screening assay according to manufacturer's recommendations. The assay read out is a change in absorbance between NADPH and NADP. ML162 (25 μM) and RSL3 (25 μM) were used as positive control compounds.
An enzymatic assay that measures the reduction of […] by GPX4 was used to test the ability of compounds 8216, 6666, 8147, and 3793 to inhibit the activity of GPX4. The enzymatic assay was performed using a commercially available kit (Cayman cat #701880). The compounds were tested at 8 concentrations in duplicate with the compound being diluted following manufacturer's instructions. The enzymatic reaction was allowed to continue for 1 hour prior to reading out the kinetic shift in absorbance that occurs as result of GPX4 […].

reduction in GPX4 enzymatic activity (recombinant GPX4 protein): about 55%
SMILES: COC(=O)c1ccc([C@@H]2c3[nH]c4ccccc4c3C[C@@H](C(=O)OC)N2C(=O)CCl)cc1 [RSL3, reference compound]
HMOX1 upregulation and rescue by ferrostatin-1 (RT-qPCR) ([1]; 5 μM, 4 hours, with and without ferrostatin-1): upregulation of HMOX1 which was rescued by the addition of ferrostatin-1, to varying degrees
HMOX1 induction (RT-qPCR) ([1]; 10 μM or 5 μM, four hours, normalized to ACTB, relative to DMSO): induces HMOX1 dose-dependently
Average relative cell viability [2]: 0.00933
HMOX1 transcriptional activation (PRO-seq) [3]: robust transcriptional activation of the HMOX1 gene at one hour
